According to ChEMBL document CHEMBL1156451 (J Biol Chem, 2007):
Converted amounts (≈) assume the structure as drawn. The source made the active and inactive calls. The calls are words filed in the database; no cut-off is given here. Where a SMILES comes first, the peptide text is derived from it.

Tests used:
[1] = tested on: HeLa; assay: Cytotoxicity against human HeLa cells at 100 ug/ml after 24 hrs by MTT assay relative to control; type: functional
[2] = tested on: HeLa; assay: Cytotoxicity against human HeLa cells at 100 ug/ml after 24 hrs by neutral red uptake assay relative to control; type: functional
[3] = Toxicity in human erythrocytes assessed as hemolysis at 100 ug/ml; type: cell-based, Erythrocyte; conditions: read-out: Activity
[4] = tested on: Escherichia coli; assay: Antibacterial activity against Escherichia coli K12 ATCC 23716 in 10% Luria-Bertani medium/90% Hepes buffer at pH 7.0; type: functional
[5] = tested on: Bordetella bronchiseptica; assay: Antibacterial activity against Bordetella bronchiseptica CUN 11844-99 after 24 hrs in Mueller-Hinton broth medium; type: functional
[6] = tested on: Brucella abortus; assay: Antibacterial activity against Brucella abortus 9.49 (per-) after 48 hrs in Mueller-Hinton broth medium; type: functional
[7] = tested on: Acinetobacter baumannii; assay: Antibacterial activity against Acinetobacter baumannii ATCC 19606 after 24 hrs in Mueller-Hinton broth medium; type: functional; conditions: ATCC 19606, 24 h
[8] = tested on: Escherichia coli; assay: Antibacterial activity against Escherichia coli K12 ATCC 23716 after 24 hrs in Mueller-Hinton broth medium; type: functional; conditions: K12, 24 h
[9] = tested on: Brucella abortus; assay: Antibacterial activity against Brucella abortus 9.19 (per-) after 24 hrs in Mueller-Hinton broth medium; type: functional
[10] = tested on: Escherichia coli; assay: Antibacterial activity against Escherichia coli ATCC 25922 after 24 hrs in Mueller-Hinton broth medium; type: functional; conditions: ATCC 25922, 24 h
[11] = tested on: Pseudomonas aeruginosa; assay: Antibacterial activity against Pseudomonas aeruginosa CUN 4158-02 after 24 hrs in Mueller-Hinton broth medium; type: functional
[12] = tested on: Staphylococcus aureus; assay: Antibacterial activity against methicillin-resistant Staphylococcus aureus ATCC 43300 after 24 hrs in Mueller-Hinton broth medium; type: functional; conditions: ATCC 43300, 24 h

SMILES	Activity [1]	Activity [2]	hemolysis at 100 ug/ml [3]	MBC [4]	MIC [4]	MBC [5]	MIC [5]	MIC [6]	MBC [7]	MIC [7]	MBC [8]	MIC [8]	MBC [9]	MBC [10]	MIC [10]	MBC [11]	MIC [11]	MBC [12]	MIC [12]
CC[C@H](C)[C@H](NC(=O)[C@H](CCCNC(=N)N)NC(=O)[C@H](CCCNC(=N)N)NC(=O)[C@H](CC(C)C)NC(=O)[C@H](Cc1ccccc1)NC(=O)[C@@H](NC(=O)[C@H](CCCNC(=N)N)NC(=O)[C@H](CCSC)NC(=O)[C@@H](NC(=O)[C@H](CCCCN)NC(=O)[C@H](CCCCN)NC(=O)[C@H](CO)NC(=O)[C@@H](NC(=O)CNC(=O)[C@H](CCCNC(=N)N)NC(=O)[C@H](CC(C)C)NC(=O)[C@@H](NC(=O)[C@@H](N)CCCCN)[C@@H](C)CC)C(C)C)[C@@H](C)CC)[C@@H](C)O)C(=O)N[C@@H](CO)C(=O)N[C@@H](CCCCN)C(=O)N[C@@H](CC(=O)O)C(=O)N[C@H](C(=O)N[C@@H](CC(C)C)C(=O)N[C@H](C(=O)NCC(=O)N[C@@H](CCCCN)C(=O)N[C@@H](CCCCN)C(=O)O)[C@@H](C)O)[C@@H](C)CC (H-KILRGVSKKIMRTFLRRISKDILTGKK-OH)	6.5%	6.9%	< 5%	8 µg/mL (≈ 2.51 µM)	8 µg/mL (≈ 2.51 µM)														
CC[C@H](C)[C@H](NC(=O)[C@H](CCCCN)NC(=O)[C@H](CCCCN)NC(=O)[C@H](CO)NC(=O)[C@@H](NC(=O)[C@@H](N)CCCCN)[C@@H](C)CC)C(=O)N[C@@H](CCSC)C(=O)N[C@@H](CCCNC(=N)N)C(=O)N[C@H](C(=O)N[C@@H](Cc1ccccc1)C(=O)N[C@@H](CC(C)C)C(=O)N[C@@H](CCCNC(=N)N)C(=O)N[C@@H](CCCNC(=N)N)C(N)=O)[C@@H](C)O (H-KISKKIMRTFLRR-NH2)	6.4%	18.5%	< 5%	12.5 µg/mL (≈ 7.46 µM)	12.5 µg/mL (≈ 7.46 µM)	32 µg/mL (≈ 19.1 µM)	16 µg/mL (≈ 9.55 µM)	16 µg/mL (≈ 9.55 µM)	256 µg/mL (≈ 153 µM)	256 µg/mL (≈ 153 µM)	16 µg/mL (≈ 9.55 µM)	16 µg/mL (≈ 9.55 µM)	> 256 µg/mL	128 µg/mL (≈ 76.4 µM)	64 µg/mL (≈ 38.2 µM)	256 µg/mL (≈ 153 µM)	256 µg/mL (≈ 153 µM)	> 256 µg/mL	> 256 µg/mL
CC[C@H](C)[C@H](NC(=O)[C@H](CCCCN)NC(=O)[C@H](CCCCN)NC(=O)[C@H](CO)NC(=O)[C@@H](NC(=O)[C@@H](N)CCCCN)[C@@H](C)CC)C(=O)N[C@@H](CCSC)C(=O)N[C@@H](CCCNC(=N)N)C(=O)N[C@H](C(=O)N[C@@H](Cc1ccccc1)C(=O)N[C@@H](CC(C)C)C(=O)N[C@@H](CCCNC(=N)N)C(=O)N[C@@H](CCCNC(=N)N)C(=O)N[C@H](C(=O)N[C@@H](CC(C)C)C(=O)N[C@H](C(=O)NCC(=O)N[C@@H](CCCCN)C(=O)N[C@@H](CCCCN)C(N)=O)[C@@H](C)O)[C@@H](C)CC)[C@@H](C)O (H-KISKKIMRTFLRRILTGKK-NH2)	21.1%	56.4%		50 µg/mL (≈ 21.6 µM)	25 µg/mL (≈ 10.8 µM)	128 µg/mL (≈ 55.2 µM)	128 µg/mL (≈ 55.2 µM)	2 µg/mL (≈ 0.863 µM)	4 µg/mL (≈ 1.73 µM)	4 µg/mL (≈ 1.73 µM)	8 µg/mL (≈ 3.45 µM)	8 µg/mL (≈ 3.45 µM)	32 µg/mL (≈ 13.8 µM)	16 µg/mL (≈ 6.91 µM)	16 µg/mL (≈ 6.91 µM)	8 µg/mL (≈ 3.45 µM)	8 µg/mL (≈ 3.45 µM)	256 µg/mL (≈ 110 µM)	256 µg/mL (≈ 110 µM)
CC[C@H](C)[C@H](NC(=O)[C@H](CCCCN)NC(=O)[C@@H](N)CCCCN)C(=O)N[C@@H](CCSC)C(=O)N[C@@H](CCCNC(=N)N)C(=O)N[C@H](C(=O)N[C@@H](Cc1ccccc1)C(=O)N[C@@H](CC(C)C)C(=O)N[C@@H](CCCNC(=N)N)C(=O)N[C@@H](CCCNC(=N)N)C(N)=O)[C@@H](C)O (H-KKIMRTFLRR-NH2)	inactive		< 5%	50 µg/mL (≈ 37.1 µM)	25 µg/mL (≈ 18.5 µM)	> 256 µg/mL	> 256 µg/mL	128 µg/mL (≈ 95 µM)	> 128 µg/mL	> 128 µg/mL	256 µg/mL (≈ 190 µM)	256 µg/mL (≈ 190 µM)	< 256 µg/mL	> 256 µg/mL	256 µg/mL (≈ 190 µM)	> 256 µg/mL	> 256 µg/mL	> 256 µg/mL	256 µg/mL (≈ 190 µM)
CC[C@H](C)[C@H](NC(=O)[C@H](CCCNC(=N)N)NC(=O)[C@H](CCCNC(=N)N)NC(=O)[C@H](CC(C)C)NC(=O)[C@H](Cc1ccccc1)NC(=O)[C@@H](NC(=O)[C@H](CCCNC(=N)N)NC(=O)[C@H](CCSC)NC(=O)[C@@H](NC(=O)[C@H](CCCCN)NC(=O)[C@@H](N)CCCCN)[C@@H](C)CC)[C@@H](C)O)C(=O)N[C@@H](CO)C(=O)N[C@@H](CCCCN)C(=O)N[C@@H](CC(=O)O)C(=O)N[C@H](C(=O)N[C@@H](CC(C)C)C(=O)N[C@H](C(=O)NCC(=O)N[C@@H](CCCCN)C(=O)N[C@@H](CCCCN)C(N)=O)[C@@H](C)O)[C@@H](C)CC (H-KKIMRTFLRRISKDILTGKK-NH2)	inactive		< 5%	32 µg/mL (≈ 13.2 µM)	32 µg/mL (≈ 13.2 µM)	8 µg/mL (≈ 3.29 µM)	4 µg/mL (≈ 1.64 µM)	16 µg/mL (≈ 6.58 µM)	64 µg/mL (≈ 26.3 µM)	8 µg/mL (≈ 3.29 µM)	32 µg/mL (≈ 13.2 µM)	32 µg/mL (≈ 13.2 µM)	> 256 µg/mL	64 µg/mL (≈ 26.3 µM)	16 µg/mL (≈ 6.58 µM)	128 µg/mL (≈ 52.6 µM)	128 µg/mL (≈ 52.6 µM)	> 256 µg/mL	> 256 µg/mL
CC[C@H](C)[C@H](NC(=O)[C@H](CCCNC(=N)N)NC(=O)[C@H](CCCNC(=N)N)NC(=O)[C@H](CC(C)C)NC(=O)[C@H](Cc1ccccc1)NC(=O)[C@@H](NC(=O)[C@H](CCCNC(=N)N)NC(=O)[C@H](CCSC)NC(=O)[C@@H](NC(=O)[C@H](CCCCN)NC(=O)[C@@H](N)CCCCN)[C@@H](C)CC)[C@@H](C)O)C(=O)N[C@@H](CO)C(=O)N[C@@H](CCCCN)C(=O)N[C@@H](CCCCN)C(=O)N[C@H](C(=O)N[C@@H](CC(C)C)C(=O)N[C@H](C(=O)NCC(=O)N[C@@H](CCCCN)C(=O)N[C@@H](CCCCN)C(N)=O)[C@@H](C)O)[C@@H](C)CC (H-KKIMRTFLRRISKKILTGKK-NH2)	inactive		< 5%	32 µg/mL (≈ 13.1 µM)	16 µg/mL (≈ 6.54 µM)	16 µg/mL (≈ 6.54 µM)	2 µg/mL (≈ 0.818 µM)	4 µg/mL (≈ 1.64 µM)	8 µg/mL (≈ 3.27 µM)	8 µg/mL (≈ 3.27 µM)	32 µg/mL (≈ 13.1 µM)	16 µg/mL (≈ 6.54 µM)	32 µg/mL (≈ 13.1 µM)	64 µg/mL (≈ 26.2 µM)	32 µg/mL (≈ 13.1 µM)	128 µg/mL (≈ 52.3 µM)	32 µg/mL (≈ 13.1 µM)	256 µg/mL (≈ 105 µM)	128 µg/mL (≈ 52.3 µM)
CC[C@H](C)[C@H](NC(=O)CN)C(=O)NCC(=O)N[C@@H](C)C(=O)N[C@H](C(=O)N[C@@H](CC(C)C)C(=O)N[C@@H](CCCCN)C(=O)N[C@H](C(=O)N[C@@H](CC(C)C)C(=O)N[C@H](C(=O)N[C@H](C(=O)NCC(=O)N[C@@H](CC(C)C)C(=O)N1CCC[C@H]1C(=O)N[C@@H](C)C(=O)N[C@@H](CC(C)C)C(=O)N[C@H](C(=O)N[C@@H](CO)C(=O)N[C@@H](Cc1c[nH]c2ccccc12)C(=O)N[C@H](C(=O)N[C@@H](CCCCN)C(=O)N[C@@H](CCCNC(=N)N)C(=O)N[C@@H](CCCCN)C(=O)N[C@@H](CCCNC(=N)N)C(=O)N[C@@H](CCC(N)=O)C(=O)N[C@@H](CCC(N)=O)C(N)=O)[C@@H](C)CC)[C@@H](C)CC)[C@@H](C)O)[C@@H](C)O)C(C)C)C(C)C [MELITTIN]	90.1%	86%		12.5 µg/mL (≈ 4.39 µM)		4 µg/mL (≈ 1.41 µM)	4 µg/mL (≈ 1.41 µM)	4 µg/mL (≈ 1.41 µM)	2 µg/mL (≈ 0.703 µM)	2 µg/mL (≈ 0.703 µM)	4 µg/mL (≈ 1.41 µM)		4 µg/mL (≈ 1.41 µM)	4 µg/mL (≈ 1.41 µM)		16 µg/mL (≈ 5.62 µM)		2 µg/mL (≈ 0.703 µM)	
CC[C@H](C)[C@H](NC(=O)[C@H](CCCNC(=N)N)NC(=O)[C@H](CCCNC(=N)N)NC(=O)[C@H](CO)NC(=O)[C@@H](NC(=O)CNC(=O)[C@H](CCCNC(=N)N)NC(=O)[C@H](CC(C)C)NC(=O)[C@@H](NC(=O)[C@@H](N)CCCNC(=N)N)[C@@H](C)CC)C(C)C)C(=O)N[C@@H](CCSC)C(=O)N[C@@H](CCCNC(=N)N)C(=O)N[C@@H](CCCNC(=N)N)C(=O)N[C@H](C(=O)N[C@@H](CC(C)C)C(=O)N[C@H](C(=O)NCC(=O)N[C@@H](CCCNC(=N)N)C(=O)N[C@@H](CCCNC(=N)N)C(N)=O)[C@@H](C)O)[C@@H](C)CC [RILRGVSRRIM RR ILTGRR] (H-RILRGVSRRIMRRILTGRR-NH2)	6.6%	13.5%		16 µg/mL (≈ 6.77 µM)	16 µg/mL (≈ 6.77 µM)	4 µg/mL (≈ 1.69 µM)	4 µg/mL (≈ 1.69 µM)	8 µg/mL (≈ 3.38 µM)	8 µg/mL (≈ 3.38 µM)	8 µg/mL (≈ 3.38 µM)	16 µg/mL (≈ 6.77 µM)	16 µg/mL (≈ 6.77 µM)	32 µg/mL (≈ 13.5 µM)	16 µg/mL (≈ 6.77 µM)	16 µg/mL (≈ 6.77 µM)	128 µg/mL (≈ 54.1 µM)	32 µg/mL (≈ 13.5 µM)	32 µg/mL (≈ 13.5 µM)	32 µg/mL (≈ 13.5 µM)
